Here are results for six molecules from PubChem BioAssay AID1963984 (Molecular Pharmacology Branch, DTP, NCI, 2024).

This test has as its system 233499-124-R-J3-PDC spheroids with HUVEC/MSC, viability. The test is described as follows: Anticancer human tumor 233499-124-R-J3-PDC patient-derived colon adenocarcinoma cell line growth inhibition [PI3K]. As to conditions: for viability, T/C: stronger effect = lower value. In a few lines:
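Complex 3D spheroids (cancer cells + endothelial HUVEC + mesenchymal stem cells); drug pairs of targeted agent x inavolisib/alpelisib/duvelisib/copanlisib; half-log series from ~Cmax, max 10 microM if Cmax unknown; endpoint viability.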

The mark [1] stands for this setting: curve of first compound, second compound 0.00316 µM.
Where [2] appears, read: curve of first compound, second compound 0.01 µM.
Where [3] appears, read: curve of first compound, second compound 0.0316 µM.
Setting [4] is: curve of first compound, second compound 0.1 µM.
Setting [5] is: curve of first compound, second compound 0.316 µM.
Where [6] appears, read: curve of first compound, second compound 1 µM.
Setting [7] is: second compound 0.00316 µM, first compound 0.0316 µM.
Setting [8] is: second compound 0.00316 µM, first compound 0.1 µM.
The mark [9] stands for this setting: second compound 0.01 µM, first compound 0.0316 µM.
[10] abbreviates: second compound 0.01 µM, first compound 0.1 µM.
[11] abbreviates: second compound 0.0316 µM, first compound 0.0316 µM.
Where [12] appears, read: second compound 0.0316 µM, first compound 0.1 µM.
Where [13] appears, read: second compound 0.1 µM, first compound 0.0316 µM.
Where [14] appears, read: second compound 0.1 µM, first compound 0.1 µM.
Where [15] appears, read: second compound 0.316 µM, first compound 0.0316 µM.
The mark [16] stands for this setting: second compound 0.316 µM, first compound 0.1 µM.
The mark [17] stands for this setting: second compound 1 µM, first compound 0.0316 µM.
The mark [18] stands for this setting: second compound 1 µM, first compound 0.1 µM.

As usually defined, the IC50 is the concentration needed to halve the response being measured. The viability, T/C is the result in the treated group divided by that in the control group, in per cent.

SMILES strings stand for the structures. Where “and” joins values, the source holds several entries; their conditions need not be identical. Equal entries are not always repeated.
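Also: spheroids exposed to agents for seven days before readout.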
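For viability, T/C in this document: percent viability relative to DMSO vehicle control taken as 100%.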

Regarding `CC(=O)c1c(C)c2cnc(Nc3ccc(N4CCNCC4)cn3)nc2n(C2CCCC2)c1=O` + COc1c(OCCCN2CCOCC2)ccc2c3n(c(=NC(=O)c4cnc(N)nc4)nc12)CCN3, the 50% inhibitory concentration (IC50) runs as follows: under setting [1], over 0.1 µM; under setting [2], over 0.1 µM; under setting [3], over 0.1 µM; under setting [4], over 0.1 µM; under setting [5], under 0.000316 µM; under setting [6], under 0.000316 µM. In addition, the viability, T/C was 106% (second compound 0.00316 µM, first compound 0.000316 µM); 106% (second compound 0.00316 µM, first compound 0.001 µM); 121% (second compound 0.00316 µM, first compound 0.00316 µM); 106% (second compound 0.00316 µM, first compound 0.01 µM); 76.5% under setting [7]; 61% under setting [8]. In addition, the viability, T/C is 86.5% (second compound 0.01 µM, first compound 0.000316 µM); 119% (second compound 0.01 µM, first compound 0.001 µM); 89.2% (second compound 0.01 µM, first compound 0.00316 µM); 89.3% (second compound 0.01 µM, first compound 0.01 µM); 83% under setting [9]; 75.7% under setting [10]. The viability, T/C is, setting by setting: (second compound 0.0316 µM, first compound 0.000316 µM) 90%; (second compound 0.0316 µM, first compound 0.001 µM) 95.8%; (second compound 0.0316 µM, first compound 0.00316 µM) 94.4%; (second compound 0.0316 µM, first compound 0.01 µM) 86.8%; under setting [11], 86.2%; under setting [12], 86%. Further, the viability, T/C is 56.3% (second compound 0.1 µM, first compound 0.000316 µM); 78.8% (second compound 0.1 µM, first compound 0.001 µM); 63.7% (second compound 0.1 µM, first compound 0.00316 µM); 73.2% (second compound 0.1 µM, first compound 0.01 µM); 61.6% under setting [13]; 62.4% under setting [14]. The viability, T/C was 28.7% (second compound 0.316 µM, first compound 0.000316 µM); 32.3% (second compound 0.316 µM, first compound 0.001 µM); 30.3% (second compound 0.316 µM, first compound 0.00316 µM); 31.8% (second compound 0.316 µM, first compound 0.01 µM); 27.5% under setting [15]; 31.2% under setting [16]. For the same molecule, the viability, T/C is 13.7% (second compound 1 µM, first compound 0.000316 µM); 4.51% (second compound 1 µM, first compound 0.001 µM); 5.25% (second compound 1 µM, first compound 0.00316 µM); 12.8% (second compound 1 µM, first compound 0.01 µM); 10.7% under setting [17]; 10.2% under setting [18].

As for `CC(C)NCC(C(=O)N1CCN(c2ncnc3c2C(C)CC3O)CC1)c1ccc(Cl)cc1` (centres undefined) + COc1c(OCCCN2CCOCC2)ccc2c3n(c(=NC(=O)c4cnc(N)nc4)nc12)CCN3, the half-inhibitory concentration (IC50) by setting is: under setting [1], over 10 µM; under setting [2], over 10 µM; under setting [3], over 10 µM; under setting [4], over 10 µM; under setting [5], under 0.0316 µM; under setting [6], under 0.0316 µM. For the same molecule, the viability, T/C is, setting by setting: under setting [7], 92.1%; under setting [8], 88.9%; (second compound 0.00316 µM, first compound 0.316 µM) 74%; (second compound 0.00316 µM, first compound 1 µM) 81.8%; (second compound 0.00316 µM, first compound 3.16 µM) 98.8%; (second compound 0.00316 µM, first compound 10 µM) 81.5%. Also, the viability, T/C is, setting by setting: under setting [9], 103%; under setting [10], 96.6%; (second compound 0.01 µM, first compound 0.316 µM) 82.7%; (second compound 0.01 µM, first compound 1 µM) 97.1%; (second compound 0.01 µM, first compound 3.16 µM) 90%; (second compound 0.01 µM, first compound 10 µM) 80.2%. In addition, the viability, T/C was 81% under setting [11]; 98.1% under setting [12]; 76.6% (second compound 0.0316 µM, first compound 0.316 µM); 84.4% (second compound 0.0316 µM, first compound 1 µM); 84.3% (second compound 0.0316 µM, first compound 3.16 µM); 84.1% (second compound 0.0316 µM, first compound 10 µM). Moreover, the viability, T/C is 68.4% under setting [13]; 76.4% under setting [14]; 61.4% (second compound 0.1 µM, first compound 0.316 µM); 52.2% (second compound 0.1 µM, first compound 1 µM); 49.7% (second compound 0.1 µM, first compound 3.16 µM); 65.8% (second compound 0.1 µM, first compound 10 µM). Moreover, the viability, T/C by setting is: under setting [15], 32.2%; under setting [16], 32%; (second compound 0.316 µM, first compound 0.316 µM) 31.9%; (second compound 0.316 µM, first compound 1 µM) 17.1%; (second compound 0.316 µM, first compound 3.16 µM) 35.4%; (second compound 0.316 µM, first compound 10 µM) 20.6%. Further, the viability, T/C is 5.67% under setting [17]; 11.1% under setting [18]; 6.6% (second compound 1 µM, first compound 0.316 µM); 11.4% (second compound 1 µM, first compound 1 µM); 16.2% (second compound 1 µM, first compound 3.16 µM); 10.2% (second compound 1 µM, first compound 10 µM).

In the case of `Cn1ncnc1[C@H]1c2n[nH]c(=O)c3cc(F)cc(c23)N[C@@H]1c1ccc(F)cc1`, the viability, T/C by setting is: (compound 0.000316 µM) 100% [middle of 4 runs]; (compound 0.001 µM) 99.6% [middle of 4 runs]; (compound 0.0316 µM) 103% [middle of 4 runs]; (compound 0.1 µM) 89% [middle of 4 runs]. Besides, for the setting “curve of compound”, the 50% inhibitory concentration (IC50) is over 0.1 µM.

For `COc1c(OCCCN2CCOCC2)ccc2c3n(c(=NC(=O)c4cnc(N)nc4)nc12)CCN3`, the viability, T/C reads like this: (compound 0.01 µM) 84.7% [middle of 8 runs]; (compound 0.0316 µM) 93.6% [middle of 8 runs]; (compound 0.316 µM) 31.3% [middle of 8 runs]; (compound 1 µM) 11.8% [middle of 8 runs]. In addition, the half-inhibitory concentration (IC50) (compound alone, run of 05/09/2023) is 185 nM [middle of 8 runs].

Regarding `Cn1ncc(Cl)c1-c1cc(C(=O)NC(CN)Cc2cccc(F)c2)sc1Cl` (centres undefined), the viability, T/C was 85.8% [middle of 4 runs] (compound 0.0316 µM); 102% (2×) and 85.4% and 93.9% (compound 0.1 µM); 86.2% [middle of 4 runs] (compound 0.316 µM); 89.6% [middle of 4 runs] (compound 1 µM); 63.6% [middle of 4 runs] (compound 3.16 µM); 32.4% [middle of 4 runs] (compound 10 µM). Moreover, for the setting “curve of compound”, the IC50 is 4.62 µM [middle of 4 runs].

Take `C[C@@H](NC(=O)c1ncnc(N)c1Cl)c1ncc(C(=O)Nc2cc(C(F)(F)F)c(Cl)cn2)s1`: the viability, T/C was 110% [middle of 4 runs] (compound 3.16 µM) and 110% [middle of 4 runs] (compound 10 µM). For the same molecule, for the setting “curve of compound”, the IC50 was over 10 µM.
